Earlier results in PMC11949389 (Polish Journal of Microbiology, 2025).
Converted amounts (≈) assume the structure as drawn. Where two headings read alike, the source gives them in different places.

Legend:
Candida albicans [1] = settings: Candida albicans; ref Sharifzadeh et al. 2019; Iraji et al. 2020; Shaban et al. 2020; Stringaro et al. 2022; Biernasiuk et al. 2022
Candida dubliniensis = settings: ref Iraji et al. 2020
Candida glabrata = settings: Candida glabrata; ref Sharifzadeh et al. 2019; Iraji et al. 2020; Biernasiuk et al. 2022; Stringaro et al. 2022
Candida krusei = settings: Candida krusei; ref Sharifzadeh et al. 2019; Iraji et al. 2020; Biernasiuk et al. 2022; Stringaro et al. 2022
Candida parapsilosis = settings: ref Iraji et al. 2020, Biernasiuk et al. 2022
Candida tropicalis = settings: Candida tropicalis; ref Iraji et al. 2020; Stringaro et al. 2022
Staphylococcus aureus [2] = settings: for MIC / tetracycline MIC: S. aureus; for MIC: ref Kwiatkowski et al. (2020); for MIC/Sensitivity: Staphylococcus aureus, ref Kwiatkowski et al. 2020, Sayout et al. 2020, Sousa Silveira et al. 2020, Macêdo et al. 2022, Noumi et al. 2023, Sharma et al. 2023; for tetracycline MIC: ref Sousa Silveira et al. (2020)
[3] = test system: Methicillin-resistant Staphylococcus aureus; settings: MRSA isolates, ref Kwiatkowski et al. (2020)
[4] = test system: Mupirocin-susceptible Staphylococcus aureus; settings: ref Kwiatkowski et al. 2019
[5] = test system: Mupirocin-resistant Staphylococcus aureus; settings: ref Kwiatkowski et al. 2019
Acinetobacter baumannii = settings: ref Sayout et al. 2020
Enterobacter aerogenes = settings: ref Sayout et al. 2020
Enterobacter cloacae = settings: ref Sayout et al. 2020
Escherichia coli = settings: Escherichia coli; ref Owen et al. 2019; Sayout et al. 2020; Noumi et al. 2023
Klebsiella oxytoca = settings: ref Sayout et al. 2020
Klebsiella pneumoniae = settings: ref Sayout et al. 2020, de Souza et al. 2021, Kwiatkowski et al. 2022
Salmonella spp. = settings: ref Sayout et al. 2020
[6] = test system: Vibrio anguillarum, and Vibrio harveyi; settings: ref Rossi et al. (2021)
Pseudomonas aeruginosa = settings: Pseudomonas aeruginosa; ref Owen et al. 2019; Sim et al. 2019; Noumi et al. 2023
Candida auris [7] = settings: Candida auris; ref Shaban et al. 2020
Candida albicans [8] = settings: ref Shaban et al. 2020
Candida auris [9] = settings: ref Shaban et al. 2020
Staphylococcus aureus [10] = settings: ref Mastoor et al. 2022
[11] = in combination with penicillin G

Row | Compound | MIC/Sensitivity (Candida albicans [1]) | MIC/Sensitivity (Candida dubliniensis) | MIC/Sensitivity (Candida glabrata) | MIC/Sensitivity (Candida krusei) | MIC/Sensitivity (Candida parapsilosis) | MIC/Sensitivity (Candida tropicalis) | MIC/Sensitivity (Staphylococcus aureus [2]) | MIC/Sensitivity (Acinetobacter baumannii) | MIC/Sensitivity (Enterobacter cloacae) | MIC/Sensitivity (Escherichia coli) | MIC/Sensitivity (Klebsiella pneumoniae) | further results
1 | CC12CCC(CC1)C(C)(C)O2 [1,8-Cineole] |  |  |  |  |  |  | 0.00563 to 115.1 mg/mL | 0.00563 mg/mL (≈ 0.0365 mM) | 0.00563 mg/mL (≈ 0.0365 mM) | 0.00281 mg/mL (≈ 0.0182 mM) | 0.01125 mg/mL (≈ 0.0729 mM) | MIC (Staphylococcus aureus [2]): 28,800– 57,600 μg/ml; FICI [3, 11]: 0.1; MIC/Sensitivity [4]: 307 mg/mL (≈ 1990 mM); MIC/Sensitivity [5]: 57.56 mg/mL (≈ 373 mM); MIC/Sensitivity (Enterobacter aerogenes): 0.00281 mg/mL (≈ 0.0182 mM); MIC/Sensitivity (Klebsiella oxytoca): 0.00563 mg/mL (≈ 0.0365 mM); MIC/Sensitivity (Salmonella spp.): 0.0075 mg/mL (≈ 0.0486 mM); activity at the tested concentrations [6]: no activity
2 | CC(C)[C@@H]1CC[C@@H](C)CC1=O [(–)-Menthone] | 1789.3 to 28628.8 mg/mL | 894.65 to 14314.4 mg/mL | 1789.3 to 14314.4 mg/mL | 3578.6 to 7157.2 mg/mL | 894.65 to 14314.4 mg/mL | 1789.3 to 14314.4 mg/mL |  |  |  |  |  | MIC/Sensitivity [4]: 27.91 mg/mL (≈ 181 mM); MIC/Sensitivity [5]: 6.98 mg/mL (≈ 45.3 mM)
3 | C=CC(C)(CCC=C(C)C)OC(C)=O (stereo not shown) [Linalyl acetate] |  |  |  |  |  |  | 46.9 mg/mL |  |  |  |  | MIC (Staphylococcus aureus [2]): 28,200–112,600 μg/ml; FICI ([3]; in combination with methicillin): 0.4; FICI [3, 11]: 0.6; MIC/Sensitivity [4]: 450.5 mg/mL
4 | CC(C)[C@@H]1CC[C@@H](C)CC1=O [Menthone] |  |  |  |  |  |  | 27.9 mg/mL (≈ 181 mM) |  |  |  |  | 
5 | CC(C)[C@]12CC(=O)[C@H](C)[C@H]1C2 [Thujone] | 459.7346 to 7355.7536 mg/mL | 919.4692 to 7355.7536 mg/mL | 1838.9384 to 14711.5072 mg/mL | 919.4692 to 7355.7536 mg/mL | 3677.8768 to 14711.5072 mg/mL | 919.4692 to 7355.7536 mg/mL |  |  |  |  |  | 
6 | CC1CCC(C(C)C)C(O)C1 (stereo not shown) [menthol] |  |  |  |  |  |  |  |  |  |  |  | activity at the tested concentrations [6]: no activity
7 | CN(C)[C@@H]1C(O)=C(C(N)=O)C(=O)[C@@]2(O)C(O)=C3C(=O)c4c(O)cccc4[C@@](C)(O)[C@H]3C[C@@H]12 [tetracycline, reference compound] |  |  |  |  |  |  |  |  |  |  |  | tetracycline MIC (Staphylococcus aureus [2]; before combination): 0.114 mg/mL; tetracycline MIC (Staphylococcus aureus [2]; combined with thymol): 0.101 mg/mL
8 | O=CC(Br)=Cc1ccccc1 [α-Bromo-trans-cinnamaldehyde] |  |  |  |  |  |  |  |  |  |  |  | Mechanisms of action (Staphylococcus aureus [10]): • Gene expression reduction linked to intracellular adhesion
9 | CC1=CCC(C(C)C)=CC1 [γ-Terpinene] |  |  |  |  |  |  |  | 0.00488 mg/mL (≈ 0.0358 mM) | 0.0065 mg/mL (≈ 0.0477 mM) |  | 0.00488 mg/mL (≈ 0.0358 mM) | MIC/Sensitivity (Campylobacter jejuni; Campylobacter jejuni, ref Šimunović et al. 2020): 1 mg/mL (≈ 7.34 mM); MIC (Campylobacter jejuni; ref Šimunović et al. (2020)): 1,000 μg/ml; MIC/Sensitivity (Enterobacter aerogenes): 0.00488 mg/mL (≈ 0.0358 mM); MIC/Sensitivity (Klebsiella oxytoca): 0.00488 mg/mL (≈ 0.0358 mM); MIC/Sensitivity (Salmonella spp.): 0.0065 mg/mL (≈ 0.0477 mM)
10 | (+)-α-Pinene | 51.7674 to 1716.498 mg/mL | 103.5348 to 1716.498 mg/mL | 51.7674 to 1716.498 mg/mL | 51.7674 to 858.249 mg/mL | 51.7674 to 429.1245 mg/mL | 429.1245 to 1716.498 mg/mL |  |  |  |  |  | 
11 | (–)-Limonene | 8.1738 to 13731.984 mg/mL | 12.2607 to 1716.498 mg/mL | 50.4051 to 3432.996 mg/mL | 8.1738 to 429.1245 mg/mL | 50.4051 to 213.8811 mg/mL | 213.8811 to 1716.498 mg/mL |  |  |  |  |  | 

The next lines start with results.

Row | MIC/Sensitivity (Candida albicans [1]) | MIC/Sensitivity (Candida dubliniensis) | MIC/Sensitivity (Candida glabrata) | MIC/Sensitivity (Candida krusei) | MIC/Sensitivity (Candida parapsilosis) | MIC/Sensitivity (Candida tropicalis) | MIC/Sensitivity (Staphylococcus aureus [2]) | MIC/Sensitivity (Acinetobacter baumannii) | MIC/Sensitivity (Enterobacter cloacae) | MIC/Sensitivity (Escherichia coli) | MIC/Sensitivity (Klebsiella pneumoniae) | Compound | further results
12 | 221.8892 to 7125.456 mg/mL | 53.1284 to 3562.728 mg/mL | 26.5642 to 445.341 mg/mL | 100.0064 to 445.341 mg/mL | 53.1284 to 890.682 mg/mL | 100.0064 to 445.341 mg/mL |  |  |  |  |  | CC1CC[C@H](C(C)C)[C@@H](O)C1 (single isomer, unassigned; (+)) [(+)-Menthol] | 
13 | 49.36 to 1665.9 mg/mL | 24.68 to 208.2375 mg/mL | 49.36 to 208.2375 mg/mL | 100.2625 to 1665.9 mg/mL | 49.36 to 416.475 mg/mL | 24.68 to 100.2625 mg/mL |  |  |  |  |  | CC(C)=CCCC(C)CCO (single isomer, unassigned; (-)) [(–)-Citronellol] | 
14 | 49.36 to 1665.9 mg/mL | 24.68 to 208.2375 mg/mL | 49.36 to 208.2375 mg/mL | 100.2625 to 832.95 mg/mL | 49.36 to 416.475 mg/mL | 24.68 to 100.2625 mg/mL |  |  |  |  |  | CC(C)=CCC[C@@H](C)CCO [(+)-Citronellol] | 
15 | 858.249 to 54927.936 mg/mL | 858.249 to 27463.968 mg/mL | 858.249 to 54927.936 mg/mL | 858.249 to 1716.498 mg/mL | 429.1245 to 1716.498 mg/mL | 6865.992 to 27463.968 mg/mL |  |  |  |  |  | CC1=CCC2CC1C2(C)C (stereo not drawn) [(–)-α-Pinene] | 
16 |  |  |  |  |  |  |  | 0.02 mg/mL (≈ 0.147 mM) |  | 0.015 mg/mL (≈ 0.11 mM) | 0.03 mg/mL (≈ 0.22 mM) | C=C1C2CCC(C2)C1(C)C (stereo not shown) [Camphene] | 
17 | 494.7475 to 3957.98 mg/mL | 246.6126 to 1978.99 mg/mL | 59.3697 to 989.495 mg/mL | 246.6126 to 3957.98 mg/mL | 59.3697 to 1978.99 mg/mL | 246.6126 to 989.495 mg/mL | 0.00763 mg/mL (≈ 0.0501 mM) | 0.01017 mg/mL (≈ 0.0668 mM) | 0.0061 mg/mL (≈ 0.0401 mM) | 0.00763 mg/mL (≈ 0.0501 mM) | 0.00508 mg/mL (≈ 0.0334 mM) | CC12CCC(CC1=O)C2(C)C (stereo not shown) [Camphor] | MIC/Sensitivity (Enterobacter aerogenes): 0.01525 mg/mL (≈ 0.1 mM); MIC/Sensitivity (Klebsiella oxytoca): 0.01017 mg/mL (≈ 0.0668 mM); MIC/Sensitivity (Salmonella spp.): 0.0061 mg/mL (≈ 0.0401 mM); MIC/Sensitivity (Pseudomonas aeruginosa): 0.0061 mg/mL (≈ 0.0401 mM)
18 |  |  |  |  |  |  | 0.01138 mg/mL (≈ 0.0758 mM) | 0.00758 mg/mL (≈ 0.0505 mM) | 0.0091 mg/mL (≈ 0.0606 mM) | 0.01138 mg/mL (≈ 0.0758 mM) | 0.01517 mg/mL (≈ 0.101 mM) | C=C(C)C1CC=C(C)C(=O)C1 (stereo not shown) [Carvone] | MIC/Sensitivity (Enterobacter aerogenes): 0.00569 mg/mL (≈ 0.0379 mM); MIC/Sensitivity (Klebsiella oxytoca): 0.01138 mg/mL (≈ 0.0758 mM); MIC/Sensitivity (Salmonella spp.): 0.02275 mg/mL (≈ 0.151 mM); MIC/Sensitivity (Pseudomonas aeruginosa): 0.0091 mg/mL (≈ 0.0606 mM)
19 | 1.25 mg/mL (≈ 7.01 mM) |  |  |  |  |  |  |  |  |  |  | C=CCc1ccc(OC)c(OC)c1 [Methyl eugenol] | MIC/Sensitivity (Candida auris [7]): 1.25 mg/mL (≈ 7.01 mM); Mechanisms of action (Candida albicans [8]): • Reduced proteinase production; Mechanisms of action (Candida auris [9]): • Reduced proteinase production and host cell adherence
20 |  |  |  |  |  |  |  |  | 0.00775 mg/mL (≈ 0.0569 mM) | 0.00194 mg/mL (≈ 0.0142 mM) | 0.0155 mg/mL (≈ 0.114 mM) | C=CC(=C)CCC=C(C)C [Myrcene] | 
21 |  |  |  |  |  |  | 0.01188 mg/mL (≈ 0.0872 mM) | 0.01188 mg/mL (≈ 0.0872 mM) | 0.01188 mg/mL (≈ 0.0872 mM) | 0.01188 mg/mL (≈ 0.0872 mM) | 0.02375 mg/mL (≈ 0.174 mM) | CC1=CCC2CC1C2(C)C (stereo not drawn) [α-Pinene] | activity at the tested concentrations [6]: no activity
22 | 213.8811 to 13731.984 mg/mL | 103.5348 to 6865.992 mg/mL | 103.5348 to 1716.498 mg/mL | 103.5348 to 429.1245 mg/mL | 213.8811 to 431.8491 mg/mL | 103.5348 to 3432.996 mg/mL | 0.01013 mg/mL (≈ 0.0744 mM) | 0.0135 mg/mL (≈ 0.0991 mM) | 0.00506 mg/mL (≈ 0.0371 mM) | 0.00506 mg/mL (≈ 0.0371 mM) | 0.01013 mg/mL (≈ 0.0744 mM) | C=C1CCC2CC1C2(C)C (stereo not drawn) [β-Pinene] | MIC/Sensitivity (Enterobacter aerogenes): 0.02025 mg/mL (≈ 0.149 mM); MIC/Sensitivity (Klebsiella oxytoca): 0.0135 mg/mL (≈ 0.0991 mM); MIC/Sensitivity (Salmonella spp.): 0.0081 mg/mL (≈ 0.0595 mM); MIC/Sensitivity (Pseudomonas aeruginosa): 0.01013 mg/mL (≈ 0.0744 mM)
